Assay results: patent publication US8344003B2, “2-pyridinecarboxamide derivatives” (MSD K. K., priority 2003, dated 2013)

Target: T1, recombinant human liver GK (Homo sapiens, UniProt P35557)
T1 construct: made in house; host or cells: E. coli
T1 sequence (P35557 1-466 isoform P35557-2): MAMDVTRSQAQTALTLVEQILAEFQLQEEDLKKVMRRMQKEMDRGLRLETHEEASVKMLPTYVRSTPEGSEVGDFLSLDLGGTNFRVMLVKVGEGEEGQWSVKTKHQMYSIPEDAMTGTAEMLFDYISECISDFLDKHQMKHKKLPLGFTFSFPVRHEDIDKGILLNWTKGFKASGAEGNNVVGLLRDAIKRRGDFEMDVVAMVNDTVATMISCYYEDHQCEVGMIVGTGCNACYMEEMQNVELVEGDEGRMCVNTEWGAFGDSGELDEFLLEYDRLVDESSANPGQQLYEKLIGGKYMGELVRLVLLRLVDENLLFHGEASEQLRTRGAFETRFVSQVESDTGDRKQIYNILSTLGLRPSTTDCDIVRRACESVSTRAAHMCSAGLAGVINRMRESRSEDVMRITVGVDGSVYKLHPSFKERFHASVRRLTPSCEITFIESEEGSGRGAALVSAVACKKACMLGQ
Assay: glucokinase (GK) activation assay, Thio-NADH generation via reporter enzyme G6PDH, absorbance at 405 nm
Assay type: biochemical
Conditions: final glucose concentration 2.5 mM, 30° C.; for EC50: GK activation; for Emax: OD value of DMSO control regarded as 100%
Method: The glucokinase activity can be determined without directly measuring glucose-6-phosphate by measuring the amount of Thio-NADH generated during the production of phosphogluconolactone from glucose-6-phosphate by a reporter enzyme glucose-6-phosphate dehydrogenase. Thus, the degree of the glucokinase activity can be determined.
The recombinant human liver GK used in this assay expressed as a FLAG fusion protein in E. coli, was purified on […] M2 AFFINITY GEL (Sigma).
Assay was carried out at 30° C. in a 96-well plate. In the plate was distributed 69 μl each of assay buffer (25 mM Hepes Buffer: pH=7.2, 2 mM MgCl2, 1 mM ATP, 0.5 mM TNAD, 1 mM dithiothreitol), to which was added 1 μl of a DMSO solution of the compound or DMSO as control. Then, 20 μl of pre-ice-cooled enzyme mixture (FLAG-GK, 20 U/ml G6PDH) was distributed thereto, to which was added 10 μl of 25 mM glucose as substrate to initiate the reaction (final glucose concentration=2.5 mM).
FLAG-GK was added so that the increase of absorbance after 5 minutes fell between 0.05 to 0.1 in the presence of 1% DMSO.
The OD values of the respective compounds to be evaluated were measured in the respective concentrations, wherein the OD value of DMSO as control was regarded as 100%. From the OD values at the respective concentrations, Emax (%) and EC50 (μM) were calculated and used as indicators of the GK activation capability of the compounds. According to the above assay, the GK activation capability of the compounds in the present invention was determined.

EC50	Emax	SMILES
50 nM	997%	COc1ccc(Sc2ccc(Sc3nnc[nH]3)nc2C(=O)Nc2nccs2)cc1 [Production Example 1]
120 nM	818%	Cc1ccc(Sc2ccc(Sc3nnc[nH]3)nc2C(=O)Nc2nccs2)cn1 [Production Example 30, 3-(6-methyl-pyridine-3-yl-sulfanyl)-6-(4H-[1,2,4]triazole-3-yl-sulfanyl)-N-(thiazole-2-yl)-2-pyridine carboxamide]
